What follows are compounds tested on cellular pERK in PC-9 cells (EGFR Ex19Del) (assay: Potency assay: pERK (AlphaLISA SureFire Ultra p-ERK1/2) in PC-9 cells). Conditions: Homo sapiens, PC-9, 1 h, PC-9 cells (EGFR Ex19Del), 1 hour incubation, AlphaLISA SureFire Ultra p-ERK1/2; read-out: SOS1 pERK IC50.
Assay type: cell-based

SMILES	IC50 [nM]
CC(=O)N1CCCC(C#N)(c2cc3c(N[C@H](C)c4cccc(C(F)F)c4F)ncnc3n(C)c2=O)CC1 (stereo partly drawn) [Example 36-9]	86.9
CC(=O)N1CC[C@H](c2cc3c(N[C@H](C)c4cccc(C(F)F)c4F)ncnc3n(C)c2=O)C1 [Example 33-15]	113
CC(=O)N1CCC(c2cc3c(N[C@H](C)c4cc(C(F)F)c5cc[nH]c5c4)ncnc3n(C)c2=O)CC1 [Example 48, 6-(1-acetyl-4-piperidyl)-4-[[(1R)-1-[4-(difluoromethyl)-1H-indol-6-yl]ethyl]amino]-8-methyl-pyrido[2,3-d]pyrimidin-7-one]	1520
C[C@@H](Nc1ncnc2c1cc(C1(F)CN(C)C1)c(=O)n2C)c1cccc(C(F)F)c1F [Example 29-1]	122
C[C@@H](Nc1ncnc2c1cc(C1CCS(=O)(=O)CC1)c(=O)n2C)c1ccc(-c2ccccc2CN)s1 [Example 33-18]	53.2
CC(=O)N1CC(c2cc3c(N[C@H](C)c4cccc(C(F)F)c4F)ncnc3n(C)c2=O)C1 [Example 33-11]	169
C[C@@H](Nc1ncnc2c1cc(C1CC3(C1)CS(=O)(=O)C3)c(=O)n2C)c1cccc(C(F)F)c1F [Example 33, 6-(4-{[(1R)-1-[3-(difluoromethyl)-2-fluorophenyl]ethyl]amino}-8-methyl-7-oxo-7H,8H-pyrido[2,3-d]pyrimidin-6-yl)-2λ^6-thiaspiro[3.3]heptane-2,2-dione]	145
C[C@@H](Nc1ncnc2c1cc(C1(N)CCS(=O)(=O)C1)c(=O)n2C)c1cccc(C(F)F)c1F (stereo partly drawn) [Example 31-7]	45.6
CO[C@]1(c2cc3c(N[C@H](C)c4cccc(C(F)F)c4F)ncnc3n(C)c2=O)CCN(C(C)=O)[C@H](C)C1 [Example 32-51]	5.79
C[C@@H](Nc1ncnc2c1cc(C1=CCS(=O)(=O)CC1)c(=O)n2C)c1cccc(C(F)(F)C#N)c1 [Example 40, 2-{3-[(1R)-1-{[6-(1,1-dioxo-3,6-dihydro-2H-1λ^6-thiopyran-4-yl)-8-methyl-7-oxo-7H,8H-pyrido[2,3-d]pyrimidin-4-yl]amino}ethyl]phenyl}-2,2-difluoroacetonitrile]	1370
CC(=O)NC12CC(c3cc4c(N[C@H](C)c5cccc(C(F)F)c5F)ncnc4n(C)c3=O)(C1)C2 [Example 70, N-[3-(4-{[(1R)-1-[3-(difluoromethyl)-2-fluorophenyl]ethyl]amino}-8-methyl-7-oxo-7H,8H-pyrido[2,3-d]pyrimidin-6-yl)bicyclo[1.1.1]pentan-1-yl]acetamide]	121
C[C@@H](Nc1ncnc2c1cc(C(=O)N1CC3CCC(C1)O3)c(=O)n2C)c1cccc(C(F)F)c1F [Example 26-19]	295
CO[C@@]1(c2cc3c(N[C@H](C)c4cccc(C(F)F)c4F)ncnc3n(C)c2=O)CCN(C(C)=O)C1 [Example 32-23]	52.7
C[C@@H](Nc1ncnc2c1cc(-c1ccncc1)c(=O)n2C)c1cccc(C(F)F)c1F [Example 21-14]	119
COC1(c2cc3c(N[C@H](C)c4cccc(C(F)F)c4F)ncnc3n(C)c2=O)CC(N(C)C(C)=O)C1 (stereo in doubt) [Example 32-40]	382
COC(=O)N1CCC(OC)(c2cc3c(N[C@H](C)c4cccc(C(F)F)c4F)ncnc3n(C)c2=O)CC1 [Example 32-61]	115
C[C@@H](Nc1ncnc2c1cc(C(=O)N1CC3(COC3)C1)c(=O)n2C)c1cccc(C(F)F)c1F [Example 26-4]	423
Cc1nc(N[C@H](C)c2cc(N)cc(C(F)(F)F)c2)c2cc(C3=CCOCC3)c(=O)n(C)c2n1 [Example 7, (R)-4-((1-(3-amino-5-(trifluoromethyl)phenyl)ethyl)amino)-6-(3,6-dihydro-2H-pyran-4-yl)-2,8-dimethylpyrido[2,3-d]pyrimidin-7(8H)-one]	72.4
C[C@@H](Nc1ncnc2c1cc(C(=O)N1CC3COCC31)c(=O)n2C)c1cccc(C(F)F)c1F (stereo partly drawn) [Example 26-5]	396
CO[C@@]1(c2cc3c(N[C@H](C)c4cccc(C(F)F)c4F)ncnc3n(C)c2=O)CCN(S(C)(=O)=O)C1 [Example 32-17]	29.9
C[C@@H](Nc1ncnc2c1cc(C1(F)CCN(C3COC3)CC1)c(=O)n2C)c1cccc(C(F)F)c1F [Example 29-13]	196
C[C@@H](Nc1ncnc2c1cc(C1(N)CCOCC1)c(=O)n2C)c1cccc(C(F)F)c1F [Example 31, 6-(4-aminooxan-4-yl)-4-{[(1R)-1-[3-(difluoromethyl)-2-fluorophenyl]ethyl]amino}-8-methyl-7H,8H-pyrido-[2,3-d]pyrimidin-7-one]	14.5
CO[C@]1(c2cc3c(N[C@H](C)c4cccc(C(F)F)c4F)ncnc3n(C)c2=O)CCN(C(C)=O)C1 [Example 32-19]	11.3
COC1(c2cc3c(N[C@H](C)c4cccc(C(F)F)c4F)ncnc3n(C)c2=O)CCNC1 (stereo partly drawn) [Example 32-55]	81.6
C[C@@H](Nc1ncnc2c1cc(C1=CCS(=O)(=O)CC1)c(=O)n2C)c1cccc(C(F)F)c1CC#N [Example 63, 2-[2-(difluoromethyl)-6-[(1R)-1-[[6-(1,1-dioxo-3,6-dihydro-2H-thiopyran-4-yl)-8-methyl-7-oxo-pyrido[2,3-d]pyrimidin-4-yl]amino]ethyl]phenyl]acetonitrile]	> 10000
COC1(c2cc3c(N[C@H](C)c4nccc(C(F)F)c4F)ncnc3n(C)c2=O)CCN(C(C)=O)CC1 [Example 62, 6-(1-acetyl-4-methoxy-4-piperidyl)-4-[[(1R)-1-[4-(difluoromethyl)-3-fluoro-2-pyridyl]ethyl]amino]-8-methyl-pyrido[2,3-d]pyrimidin-7-one]	262
C[C@@H](Nc1ncnc2c1cc(C1=CC[S+]([O-])CC1)c(=O)n2C)c1cccc(C(F)F)c1F (stereo partly drawn) [Example 22, 4-(((R)-1-(3-(difluoromethyl)-2-fluorophenyl)ethyl)amino)-8-methyl-6-(1-oxido-3,6-dihydro-2H-thiopyran-4-yl)pyrido[2,3-d]pyrimidin-7(8H)-one]	122

Same assay, conditions: PC-9 cells (EGFR Ex19Del), 1 hour incubation, AlphaLISA SureFire Ultra p-ERK1/2; read-out: SOS1 pERK IC50

SMILES	IC50 [nM]
C[C@@H](Nc1ncnc2c1cc(C1(F)CCS(=O)(=NC3CC3)CC1)c(=O)n2C)c1cccc2c1OCC2(F)F (stereo partly drawn) [Example 56-5]	44.1
COC1(c2cc3c(C[C@H](C)c4cccc(C(F)F)c4F)ncnc3n(C)c2=O)CC2(C1)CS(=O)(=NC1CC1)C2 (stereo partly drawn) [Example 68-3]	100
C[C@@H](Nc1ncnc2c1cc(C1(C#N)CCS(=O)(=O)C1)c(=O)n2C)c1cccc(C(F)F)c1F (stereo partly drawn) [Example 36-15]	58.9
C[C@@H](Nc1ncnc2c1cc(C13CCOCC1C3)c(=O)n2C)c1cccc(C(F)F)c1F (single isomer, unassigned) [Example 54-3]	376
C[C@@H](Nc1ncnc2c1cc(C1(F)CCC3(CC1)CS(=O)(=NC1CC1)C3)c(=O)n2C)c1cccc(C(F)F)c1F (single isomer, unassigned) [Example 56-3]	86.2
COC1(c2cc3c(N[C@H](C)c4cccc(C(F)F)c4F)ncnc3n(C)c2=O)CCS(=O)(=O)C(C)C1 (stereo partly drawn) [Example 32-64]	154
C[C@@H](Nc1ncnc2c1cc(C1(C#N)CCP(C)(=O)CC1)c(=O)n2C)c1cccc(C(F)F)c1F (stereo partly drawn) [Example 36-12]	448
CC1CC(c2cc3c(N[C@H](C)c4cccc(C(F)F)c4F)ncnc3n(C)c2=O)CCS1(=O)=O (stereo partly drawn) [Example 33-13]	21
C[C@@H](Nc1ncnc2c1cc(C13CCOCC1C3)c(=O)n2C)c1cccc(C(F)F)c1F (single isomer, unassigned) [Example 54-2]	82.8

From patent US11168102B1, “Bicyclic heteroaryl compounds and uses thereof” (Revolution Medicines, Inc., priority 2019, dated 2021)
